The text below walks through data of PubChem BioAssay AID1208 (EPA DSSTox, 2008).

For the series, the system named is rat chronic carcinogenicity bioassay, TD50. Description: DSSTox (CPDBAS) Carcinogenic Potency Database Summary Rat Bioassay Results. The settings on record: for Potency: stronger effect = lower value. In short, it runs like this: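 The activity score maps log10(1/TD50_Rat_mmol) linearly onto 1–100; actives without a computed TD50, such as mixtures, receive 50. Source data are chronic rat carcinogenicity tests, using the most positive experiment for each sex.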

The mark [1] stands for this setting: TD50_Rat_Note: no positive results.
Setting [2] is: TD50_Rat_Note: no positive results, TargetSites_Rat_Female: no positive results.
Where [3] appears, read: TD50_Rat_Note: TD50 is harmonic mean of more than one positive test, TargetSites_Rat_Female: nasal cavity.
Where [4] appears, read: TD50_Rat_Note: TD50 is harmonic mean of more than one positive test.
[5] abbreviates: TD50_Rat_Note: TD50 is harmonic mean of more than one positive test, TargetSites_Rat_Female: liver.
Where [6] appears, read: TargetSites_Rat_Female: no positive results.
Where [7] appears, read: TD50_Rat_Note: TD50 is harmonic mean of more than one positive test, TargetSites_Rat_Female: stomach.

Calls of active or inactive are those of the source.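 The calls were made as follows: active = at least one rat sex group has a carcinogenic potency value and tumor site recorded; inconclusive = only rat studies were judged inadequate by the national testing program; inactive = no potency or tumor site, with negative rat experiments.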

Turning to `Cc1ncc([N+](=O)[O-])n1CCO`, the Potency (TD50_Rat_Note: TD50 is harmonic mean of more than one positive test, TargetSites_Rat_Female: liver, mammary gland) is 542 mg/kg/day.
Take `CC(=O)N[C@@H](CS)C(=O)O`: under setting [1], the outcome was “inactive; no positive results”.
In the case of `Cc1ccccc1[N+](=O)[O-]`, the Potency (TD50_Rat_Note: TD50 is harmonic mean of more than one positive test, greater than ten-fold variation among TD50 values for positive res, TargetSites_Rat_Female: liver, mammary gland, subcutaneous tissue) was 4.66 mg/kg/day.
`CC(Cl)CCl` (stereo not given): under setting [2], the outcome was “inactive; no positive results”.
Turning to `Nc1ccc(N)c2c1C(=O)c1c(N)ccc(N)c1C2=O`, the Potency (TD50_Rat_Note: TD50 is harmonic mean of more than one positive test, TargetSites_Rat_Female: urinary bladder) was 156 mg/kg/day.
Regarding `COc1cc2c(c3oc(=O)c4c(c13)CC[C@H]4O)[C@@H]1C=CO[C@H]1O2`, the Potency was 0.00247 mg/kg/day.
Regarding `CN(N=O)c1ccncc1`, the outcome under setting [2] was inactive.
`CC=O`: the Potency under setting [3] is 153 mg/kg/day.
With `c1ccc2n[nH]nc2c1`, under setting [2], the outcome was “inactive; no positive results”.
Regarding `CO[C@@]12[C@H](COC(N)=O)C3=C(C(=O)C(C)=C(N)C3=O)N1C[C@@H]1N[C@@H]12`, the Potency (TD50_Rat_Note: positive test results only by intraperitoneal or intravenous injection, TD50 is harmonic mean of more than one positive, TargetSites_Rat_Female: peritoneal cavity) is 0.00102 mg/kg/day.
For `NC(N)=NC(N)=NCCc1ccccc1`, the outcome under setting [2] is “inactive; no positive results”.
`O=C1c2ccccc2C(=O)c2c(O)cccc21`: the Potency under setting [4] was 93.5 mg/kg/day.
For `Brc1cc(Br)c2cccnc2c1`, under setting [2], the outcome was “inactive; no positive results”.
With `Cc1cccc(N=Nc2ccc(N(C)C)cc2)c1`, the Potency under setting [4] is 3.28 mg/kg/day.
As to `Cc1ccc(N=Nc2c(O)ccc3ccccc23)c([N+](=O)[O-])c1`, the Potency under setting [5] is 1170 mg/kg/day.
With `C=CCOC(=O)CC(C)C`, the Potency under setting [6] was 123 mg/kg/day.
As to `NCC1(CC(=O)O)CCCCC1`, the Potency under setting [6] was 5850 mg/kg/day.
As to `Oc1ccc(O)cc1`, the Potency (TD50_Rat_Note: TD50 is harmonic mean of more than one positive test, TargetSites_Rat_Female: hematopoietic system) was 82.8 mg/kg/day.
Regarding `Cc1c(N(C)CS(=O)(=O)O)c(=O)n(-c2ccccc2)n1C`, the outcome under setting [2] was “inactive; no positive results”.
`CC(=O)Nc1nc(NC(C)=O)nc(-c2ccc([N+](=O)[O-])o2)n1`: where the note is “TargetSites_Rat_Female: mammary gland”, the Potency was 14.1 mg/kg/day.
Consider `c1ccc(Nc2ccc(Nc3ccccc3)cc2)cc1`, for which the outcome under setting [2] was “inactive; no positive results”.
`O=C(Nc1ccc2c(c1)Cc1ccccc1-2)C(F)(F)F`: the Potency (TargetSites_Rat_Female: ear Zymbals gland, liver, mammary gland) was 1.62 mg/kg/day.
For `CC1(C)[C@@H](O)CC[C@]2(C)[C@H]3C(=O)C=C4[C@@H]5C[C@@](C)(C(=O)O)CC[C@]5(C)CC[C@@]4(C)[C@]3(C)CC[C@@H]12`, under setting [1], the outcome was “inactive; no positive results”.
As to `CN(C)CCN(Cc1ccco1)c1ccccn1`, the outcome under setting [2] was “inactive; no positive results”.
The same measure, in the same setting: as for `O=C(CCl)c1ccccc1`, the entry is “inactive; no positive results”.
`CCOC(=O)C(C)(C)Oc1ccc(Cl)cc1`: the Potency is 169 mg/kg/day.
Turning to `CCC1(CCC(C)C)C(=O)NC(=O)NC1=O`, under setting [1], the outcome was “inactive; no positive results”.
As to `[O-]/[N+](=N\O)c1ccccc1`, under “TD50_Rat_Note: TD50 is harmonic mean of more than one positive test, TargetSites_Rat_Female: ear Zymbals gland, liver, stomach, vascular system”, the Potency is 8.35 mg/kg/day.
With `CCCCCCN(N=O)C(N)=O`, for the setting “TD50_Rat_Note: TD50 is harmonic mean of more than one positive test, harmonic mean of TD50 includes a value for upper 99% confidence li, TargetSites_Rat_Female: lung, mammary gland, stomach, uterus”, the Potency was 0.513 mg/kg/day.
`COc1ccc([N+](=O)[O-])cc1N=Nc1c(O)c(C(=O)Nc2cccc([N+](=O)[O-])c2)cc2ccccc12`: the outcome under setting [2] is “inactive; no positive results”.
Consider `O=C1OC(C(O)CO)C(O)=C1O` (stereo not given), for which, under setting [1], the outcome is “inactive; no positive results”.
In the case of `Nc1nc(=S)c2ncn([C@H]3C[C@H](O)[C@@H](CO)O3)c2[nH]1`, the Potency (TD50_Rat_Note: positive test results only by intraperitoneal or intravenous injection, TargetSites_Rat_Female: ear Zymbals gland) was 2.1 mg/kg/day.
On to `OCC(CO)(CBr)CBr`, for which, for the setting “TD50_Rat_Note: TD50 is harmonic mean of more than one positive test, TargetSites_Rat_Female: esophagus, mammary gland, oral cavity, thyroid gland”, the Potency is 111 mg/kg/day.
On to `CCN=[N+](C)[O-]`, for which the Potency was 11.5 mg/kg/day.
With `CC(=O)OCC(=O)[C@@]12N=C(C)O[C@@H]1C[C@H]1[C@@H]3CCC4=CC(=O)C=C[C@]4(C)[C@H]3[C@@H](O)C[C@@]12C`, the outcome (TD50_Rat_Note: TD50 not calculated by CPDB Source, TD50_Rat_mmol was not calculated, but Activiity Score is assigned value of 50 to ind, TargetSites_Rat_Female: no positive results) was “active; bone”.
For the compound `COc1cc2c(c3c1c(=O)c1ccccc1n3C)C=CC(C)(C)O2`, the Potency (TD50_Rat_Note: positive test results only by intraperitoneal or intravenous injection, TD50 is harmonic mean of more than one positive, TargetSites_Rat_Female: mammary gland, peritoneal cavity) is 0.505 mg/kg/day.
For the compound `c1ccc2ccccc2c1`, the Potency under setting [3] is 22.1 mg/kg/day.
In the case of `CNC[C@H](O)c1ccc(O)c(O)c1`, under “TD50_Rat_Note: only experiment is NCI/NTP bioassay inadequate, TargetSites_Rat_Female: NTP bioassay inadequate”, the outcome is reported as “ntp bioassay inadequate”.
Consider `CN(CCCC(=O)O)N=O`, for which the Potency was 0.982 mg/kg/day.
Take `C[C@]12C=CC(=O)C=C1CC[C@@H]1[C@@H]2[C@@H](O)C[C@@]2(C)[C@H]1CC[C@]2(O)C(=O)CO`: under setting [6], the Potency is 1.53 mg/kg/day.
Take `Oc1cccc(O)c1`: under setting [2], the outcome was “inactive; no positive results”.
Consider `Cc1cc(C)c(S(=O)(=O)O)cc1N=Nc1cc(S(=O)(=O)O)c2ccccc2c1O`, for which the Potency (TD50_Rat_Note: TD50 is harmonic mean of more than one positive test, TargetSites_Rat_BothSexes: hematopoietic system) was 8110 mg/kg/day.
In the case of `CCOC1=C(O)C(=O)O[C@@H]1[C@@H](O)CO`, under setting [2], the result was inactive.
Consider `CN(C)c1ccc(C(=N)c2ccc(N(C)C)cc2)cc1`, for which the Potency was 11 mg/kg/day.
Take `ClC#CCl`: the Potency (TD50_Rat_Note: TD50 is harmonic mean of more than one positive test, TargetSites_Rat_Female: hematopoietic system, kidney, liver) is 3.58 mg/kg/day.
With `CC(=O)Nc1ccc(-c2ccc(F)cc2)cc1`, the Potency was 1.01 mg/kg/day.
For `C1CNCCN1`, under setting [2], the outcome is “inactive; no positive results”.
In the case of `CC(=O)O[C@H]1CC[C@@]2(C)C(=CC[C@@H]3[C@@H]2CC[C@]2(C)C(=O)CC[C@@H]32)C1`, the Potency under setting [5] is 49.6 mg/kg/day.
Regarding `Cn1c(N)nc2c3cccnc3ccc21`, the Potency is 0.812 mg/kg/day (TD50_Rat_Note: TD50 is harmonic mean of more than one positive test, greater than ten-fold variation among TD50 values for positive res, TargetSites_Rat_Female: clitoral gland, ear Zymbals gland, large intestine, liver, mammary gland, oral cavity, preputial gland, skin, small inte) and 3.29 mg/kg/day (TargetSites_Rat_Female: ear Zymbals gland, liver, mammary gland, pancreas, urinary bladder, vascular system).
For `C/C=C1/C[C@@H](C)[C@](O)(CO)C(=O)OCC2=CC[N+]3([O-])CC[C@@H](OC1=O)[C@@H]23` (stereo not given in full), the Potency under setting [5] was 0.716 mg/kg/day.
`COC(=O)[C@H]1[C@H]2C[C@@H]3c4[nH]c5cc(OC)ccc5c4CCN3C[C@H]2C[C@@H](OC(=O)c2cc(OC)c(OC)c(OC)c2)[C@@H]1OC`: under setting [6], the Potency was 0.306 mg/kg/day.
With `N=C1C=CC(=C(c2ccc(N)cc2)c2ccc(N)cc2)C=C1`, where the note is “TD50_Rat_Note: TD50 is harmonic mean of more than one positive test, TargetSites_Rat_Female: ear Zymbals gland, subcutaneous tissue, thyroid gland”, the Potency was 39.4 mg/kg/day.
`O=Cc1ccccc1`: the outcome under setting [2] is “inactive; no positive results”.
On the same count and under the same terms, as for `CS(=O)(=O)OCCCNCCCOS(C)(=O)=O`, the entry is “inactive; no positive results”; as for `CCOP(=S)(OCC)Oc1nc(Cl)c(Cl)cc1Cl`, “inactive; no positive results”; as for `O=C(O)c1ccc(N=Nc2ccc(O)c(C(=O)O)c2)cc1`, “inactive; no positive results”.
On to `CC/C(C)=N/O`, for which, under setting [6], the Potency is 74.5 mg/kg/day.
With `CCNc1nc(Cl)nc(NC(C)C)n1`, where the note is “TD50_Rat_Note: TD50 is harmonic mean of more than one positive test, TargetSites_Rat_Female: hematopoietic system, mammary gland, uterus”, the Potency is 36.6 mg/kg/day.
For `CC(CN1CC(=O)NC(=O)C1)N1CC(=O)NC(=O)C1` (stereo not given), the Potency (TD50_Rat_Note: positive test results only by intraperitoneal or intravenous injection, TargetSites_Rat_Female: uterus) is 10.7 mg/kg/day.
As to `CCN(CC)CCCNC(=O)Cn1ncc(-c2ccccc2)c1-c1ccccc1`, under setting [2], the outcome was “inactive; no positive results”.
Regarding `Oc1ccc2c(c1)OCO2`, the Potency under setting [7] was 1350 mg/kg/day.
With `CC(=O)Nc1ccc(C(=O)CCl)cc1`, the outcome under setting [2] was “inactive; no positive results”.
`O=P1(N(CCCl)CCCl)NCCCO1` (stereo not given): the Potency (TD50_Rat_Note: TD50 is harmonic mean of more than one positive test, greater than ten-fold variation among TD50 values for positive res, TargetSites_Rat_Female: all tumor bearing animals, TargetSites_Rat_BothSexes: hematopoietic system, nervous system, urinary bladder) is 2.21 mg/kg/day.
On to `FC(F)(Cl)C(F)(Cl)Cl`, for which the outcome under setting [2] is “inactive; no positive results”.
As to `CNc1ccc(N(CCO)CCO)cc1[N+](=O)[O-]`, the Potency (TargetSites_Rat_Female: lung) is 702 mg/kg/day.
For `CC(=O)CN(CCO)N=O`, under “TargetSites_Rat_Female: liver”, the Potency is 1.8 mg/kg/day.
Consider `Cc1noc(NS(=O)(=O)c2ccc(N)cc2)c1C`, for which the outcome under setting [2] is “inactive; no positive results”.
On the same count and under the same terms, in the case of `CC(=O)CN(N=O)C(=O)NCCCl` it was “inactive; no positive results”; in that of `C[N+](C)(C)CCCl`, “inactive; no positive results”.
With `Nc1ccc(-c2ccc(N)cc2)cc1`, the Potency (TargetSites_Rat_BothSexes: hematopoietic system, liver, mammary gland) is 1.73 mg/kg/day.
On to `C=Cc1cccc[n+]1[O-]`, for which the outcome under setting [2] was inactive.
Take `Cc1cc(N=Nc2ccccc2C)ccc1N`: the Potency under setting [5] was 4.04 mg/kg/day.
Turning to `CN(C)C(=O)COC(=O)Cc1ccc(OC(=O)c2ccc(N=C(N)N)cc2)cc1`, under setting [1], the outcome is “inactive; no positive results”.
For `NC(=O)CCCCn1ccc(NC(N)=NCC(F)(F)F)n1`, the Potency under setting [7] is 1170 mg/kg/day.
